What all share (assay type): cell-based, human
One data set concerns RPMI. Nature of the data set: Cell viability by flow cytometry (annexin V/7-AAD), RPMI. The note with it: 18 hours. Here is the method:
(§1) The cell viability of the MM cell lines and primary cells from healthy PB donors was also evaluated by flow cytometry using 7-AAD/Annexin V. Patient bone marrow (BM) cells were analyzed using 7-AAD with a combination of monoclonal antibodies against myeloma-associated antigens (anti-CD56-APC, anti-CD45-Pacific Blue, and anti-CD38-APC-H7 [BD Biosciences]) and antibodies for distinguishing the granulomonocytic population (anti-CD64-FITC) and lymphocytic population (anti-CD45-Pacific Blue). The cells were acquired by means of FACSCanto II flow cytometer (BD Biosciences) and analyzed using Infinicyt™ Software (Cytognos, Spain).
A general note: Flow cytometry measures light scatter and fluorescence of single cells or particles in a stream.

In data set [1] the test system is U266. Nature of the data set: Mitochondrial transmembrane potential analysis (TMRE). To be noted: U266, 50 μM, from 15 minutes. Here is the method:
Cell lines U266 were exposed to 50 μM of WIN-55 for 15, 30, 45, and 60 minutes. The loss of mitochondrial membrane potential (Aym) was calculated using TRME (tetramethylrhodamine-ethyl-ester-perchlorate) according to the manufacturer's instructions and CCCP (2-[2-(3-chlorophenyl)hydrazinylidene] propanedinitrile) was used as a control to induce the loss of Aym.

The test system of the next data set is RPMI-LR5. The data set can be described thus: MTT cell viability assay, myeloma cell line RPMI-LR5. The note with it: RPMI-LRS, MTT, 18 hours, doses 0-50 μM; read-out: IC50, cell viability. Here is the method:
(§2) In vitro studies were carried out using six different human MM cell lines, U266, RPMI8226, MM1S, MM1R, U266-LR7, and RPMI-LR5. For ex vivo assays, human primary cells from healthy donors and MM patients were used (Table 1). Human MM cell lines U266, RPMI8226, and MM1.S were acquired from ATCC and lines U266-LR7, RPMI-LR5, and MM1.R were kindly provided by Dr. Enrique Ocio (Hospital Universitario de Salamanca, Spain). The primary cells were obtained from bone marrow (BM) aspirates or peripheral blood (PB) samples, and the peripheral blood mononuclear cells (PBMCs) were isolated by Ficoll-Hypaque centrifugation and washed twice in phosphate buffered saline (PBS) containing 1% BSA. Hematopoietic stem cells and B and T lymphocytes were isolated from healthy PB donors by positive immunomagnetic separation using human MACS CD34+, CD19+, and CD3+ microbeads, respectively. MM plasma cells were obtained from the bone marrow (BM) of patients with an infiltration of cells of more than 30% (Table 1). The MM plasma cells were identified using CD138+, and were then distinguished from the other cell populations by flow cytometry using a suitable combination of antibodies: anti-human CD64-FITC, CD34-PE, CD56-APC, CD38-APC-H7, and CD45-Pacific Blue antibodies (BD Biosciences, San Jose, Calif.). All the cell lines were cultured in RPMI-1640 supplemented with 10% fetal bovine serum (FBS) and 1% penicillin/streptomycin, as recommended by the supplier. For human primary cells, the concentration of FBS was up to 20%.
(§3) The MM cell lines and primary cells were exposed to different doses of indazole compounds, and viability was evaluated at 18, 48, and 72 hours. Pretreatments with the ceramide synthesis inhibitor (FB1), pan-caspase (ZVAD-FMK), and CB antagonists (PGN-8, PGN-37, and PGN-70) were performed for 30 minutes, and then the cells were incubated with indazole compound WIN-55 up to 18 hours. Cell viability was determined using the MTT assay Cell Counting Kit-8 (Dojindo, Kumamoto, Japan) according to the manufacturer's instructions.

The next data set deals with myeloma cell lines. The data set can be described thus: MTT cell viability assay, average over all myeloma cell lines. The note with it: average over the six myeloma cell lines, MTT, 18 hours; read-out: IC50 average. Here is the method:
as §2, §3

For the next data set, the system named is MM1R. The data set can be described thus: MTT cell viability assay, myeloma cell line MM1R. To be noted: MM1R, MTT, 18 hours, doses 0-50 μM; read-out: IC50, cell viability. Here is the method: as §2, §3
In general terms: Tetrazolium dyes change colour on reduction, which living cells bring about.

Data set [2] deals with U266. Nature of the data set: Cell viability by flow cytometry (annexin V/7-AAD), U266. To be noted: U266, 18 hours. The procedure:
as §1

Data set [3] concerns myeloma plasma cells (MPCs, CD38+). Nature of the data set: Ex vivo viability of myeloma plasma cells of MM patients by flow cytometry. The note with it: 18 hours, six MM patients. The procedure: In vitro studies were carried out using six different human MM cell lines, U266, RPMI8226, MM1S, MM1R, U266-LR7, and RPMI-LR5. For ex vivo assays, human primary cells from healthy donors and MM patients were used (Table 1). Human MM cell lines U266, RPMI8226, and MM1.S were acquired from ATCC and lines U266-LR7, RPMI-LR5, and MM1.R were kindly provided by Dr. Enrique Ocio (Hospital Universitario de Salamanca, Spain). The primary cells were obtained from bone marrow (BM) aspirates or peripheral blood (PB) samples, and the peripheral blood mononuclear cells (PBMCs) were isolated by Ficoll-Hypaque centrifugation and washed twice in phosphate buffered saline (PBS) containing 1% BSA. […]
as §1

Another data set has as its system HL60. Nature of the data set: Western blot and immunocytofluorescence in HL60 cells. From the text: The detailed methodology for analyzing mitochondrial membrane potential (APm), Western Blot analysis, and immunocytofluorescence analysis has been described elsewhere 29
For orientation: Immunoblotting shows a protein as a band on a membrane.

The next data set concerns U266-LR7. The data set can be described thus: MTT cell viability assay, myeloma cell line U266-LR7. The note with it: U266-LR7, MTT, 18 hours, doses 0-50 μM; read-out: IC50, cell viability. The procedure: as §2, §3
In a further data set the test system is KG-1. Nature of the data set: WST-1 cell viability assay, KG-1. To be noted: KG-1, 18 hours. The procedure: U937, NB-4, KG-1, and MOLM-13 (DMSZ, Braunschweig, Germany) were cultured in complete RPMI 1640 medium (with 2 mM of L-glutamine, 100 mg of penicillin, 100 μg/ml of streptomycin, and with 10% FBS), supplemented with 10 mM HEPES, 1×NaPuvuvato, and 1× non-essential amino acids.
The cell lines and primary cells were cultured in 96-well plates (5×10e5 cells per well) with the addition of the indicated concentrations of WIN 55,212-2 or PGN cannabinoids in DMSO or with the solvent only in triplicate at 18, 48, and 72 hours. Caspase inhibitor Z-VAD (OMe)-FMK or the CB2 receptor antagonist PGN-8, -37, and -70, together with the cannabinoid WIN-55,212-2, were also added. Cell viability was determined by means of the WST-1 assay [2-(4-iodophenyl)-3-(4-nitrophenyl)-5-(2,4-disulfophenyl)-2H-tetrazolium] according to the manufacturer's instructions (Dojindo Molecular Technologies). Optical densities were measured at 450 nm using a Multiskan™ Go Microplate plate reader (Thermo Fisher Scientific, Waltham, Mass., USA).
Now it will be analyzed whether the exposure to cannabinoids had any effect on the viability of the tumor cells in vitro. […]

Here are results for 1 compound from patent US20200281897A1, “INDAZOLE DERIVATIVES FOR CANCER TREATMENT” (Servicio Andaluz de Salud, priority 2016, published 2020).

In general, IC50 refers to the concentration that gives 50% inhibition.

In the case of `CS(=O)(=O)O.Cc1c(C(=O)c2cccc3ccccc23)c2cccc3c2n1[C@H](CN1CCOCC1)CO3` [WIN-55, (R)-(+)-[2,3-dihydro-5-methyl-3-(4-morpholinomethyl)-pyrrolo[1,2,3]-1,4-benzoxazin-6-yl]-1-naphthalenylmethanone mesylate], the IC50 in the data set with RPMI turned out to be 12.7 µM; with RPMI-LR5, 16.1 µM; in the data set with myeloma cell lines, 14.6 µM; in the data set with MM1R, 12.1 µM; with U266 [2], 18.5 µM; in the data set on U266-LR7, 17.2 µM. In the data set on KG-1, this compound came in with an IC50 of 33.2 µM. For the same compound, in the data set with U266 [1], the mitochondrial membrane potential result is listed as “early loss of mitochondrial membrane potential”. Further, the entries for the “decrease in cell viability of MPCs (CD38+)” value in [3] (20 μM) and in [3] (50 μM) were 70% and 85%, respectively. In addition, in the data set with HL60 (HL60), the “expression of Bax (immunocytofluorescence)” value was “considerable increase in Bax”. For the same compound, the “caspase activation pattern (Western blot)” value with HL60 (HL60, 50 μM, 2, 6, 18 and 24 hours) was “activation of various caspases”. Besides, the “% viable cells at 50 μM” value with KG-1 turned out to be 57.4%.
